Assay results reported in patent US20230114728A1 (Venatorx Pharmaceuticals, Inc., priority 2019, published 2023).
In brackets after ≈: the same amount, converted by molar mass.

Key:
Test in all cases: Broth microdilution MIC in CAMHB
Type in all cases: cell-based
A. baumannii ATCC 19606 = conditions: Acinetobacter baumannii, ATCC19606; MHB; read-out: Minimum Inhibitory Concentration, A. baumannii ATCC 19606
Procedure, shortened: (§1)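 MIC, read by eye, is the lowest compound concentration giving no bacterial growth after 16-20 h at 37° C. Test compounds are serially diluted 2-fold in CAMHB and seeded with 2-8×10^5 CFU/mL of bacteria taken from a 3-5 h shaking culture, following CLSI methods.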

E. coli 901C = conditions: Escherichia coli; E. coli 901C (hyper-permeable); MHB; read-out: Minimum Inhibitory Concentration, E. coli 901C
Procedure, shortened: as §1

E. coli AG100A = conditions: Escherichia coli, read-out: Minimum Inhibitory Concentration, E. coli AG100A
Procedure, shortened: as §1

E. coli AG100 = conditions: Escherichia coli; E. coli AG100 (wild-type parent); MHB; read-out: Minimum Inhibitory Concentration, E. coli AG100
Procedure, shortened: as §1

E. coli ATCC 25922 = conditions: Escherichia coli, ATCC25922; E. coli ATCC 25922; MHB; read-out: Minimum Inhibitory Concentration, E. coli 25922
Procedure, shortened: as §1

E. coli D22 = conditions: Escherichia coli; E. coli D22 (hyper-permeable); MHB; read-out: Minimum Inhibitory Concentration, E. coli D22
Procedure, shortened: as §1

[1] = tested on: K. pneumoniae 848844 producing SHV-11 and KPC-2; conditions: Klebsiella pneumoniae, read-out: Minimum Inhibitory Concentration, K. pneumoniae 848844
Procedure, shortened: as §1

[2] = tested on: K. pneumoniae SI-117 producing VIM-1; conditions: Klebsiella pneumoniae, read-out: Minimum Inhibitory Concentration, K. pneumoniae SI-117
Procedure, shortened: as §1

[3] = tested on: K. pneumoniae UMM producing SHV-5 and KPC-2; conditions: Klebsiella pneumoniae, read-out: Minimum Inhibitory Concentration, K. pneumoniae UMM
Procedure, shortened: as §1

[4] = tested on: P. aeruginosa (ΔmexAB-oprM); conditions: Pseudomonas aeruginosa, read-out: Minimum Inhibitory Concentration, P. aeruginosa ΔmexAB-OprM
Procedure, shortened: as §1

P. aeruginosa ATCC 27853 = conditions: Pseudomonas aeruginosa, ATCC27853; MHB; read-out: Minimum Inhibitory Concentration, P. aeruginosa ATCC 27853
Procedure, shortened: as §1

P. aeruginosa ATCC 35151 = conditions: Pseudomonas aeruginosa, ATCC35151; MHB; hyper-permeable strain; read-out: Minimum Inhibitory Concentration, P. aeruginosa ATCC 35151
Procedure, shortened: as §1

SMILES | MIC (A. baumannii ATCC 19606) [mg/L] | MIC (E. coli 901C) [mg/L] | MIC (E. coli AG100A) [mg/L] | MIC (E. coli AG100) [mg/L] | MIC (E. coli ATCC 25922) [mg/L] | MIC (E. coli D22) [mg/L] | MIC [1] [mg/L] | MIC [2] [mg/L] | MIC [3] [mg/L] | MIC [4] [mg/L] | MIC (P. aeruginosa ATCC 27853) [mg/L] | MIC (P. aeruginosa ATCC 35151) [mg/L]
CCN1CCN(C(=O)NC(C(=O)N[C@H]2Cc3cccc(C(=O)O)c3OB2O)c2cc(Cl)c(O)cc2F)C(=O)C1=O (stereo partly drawn) [Example 101, (3R)-3-(2-(5-chloro-2-fluoro-4-hydroxyphenyl)-2-(4-ethyl-2,3-dioxopiperazine-1-carboxamido)acetamido)-2-hydroxy-3,4-dihydro-2H-benzo[e][1,2]oxaborinine-8-carboxylic acid] | > 128 | < 0.25 | 2 to 4 (≈ 3.47 to 6.94 µM) | 32 to 64 (≈ 55.5 to 111 µM) | 32 to 64 (≈ 55.5 to 111 µM) | 2 to 4 (≈ 3.47 to 6.94 µM) | > 128 | > 128 | 32 to 64 (≈ 55.5 to 111 µM) | 8 to 16 (≈ 13.9 to 27.7 µM) | > 128 | 0.5 to 1 (≈ 0.867 to 1.73 µM)
CCN1CCN(C(=O)N[C@H](C(=O)N[C@H]2Cc3cccc(C(=O)O)c3OB2O)c2ccc(C(=O)O)cc2)C(=O)C1=O (single isomer, unassigned) [Example 123] | > 128 | < 0.25 | 8 to 16 (≈ 14.5 to 29 µM) | 32 to 64 (≈ 57.9 to 116 µM) | > 128 | 2 to 4 (≈ 3.62 to 7.24 µM) | > 128 | > 128 | > 128 | 8 to 16 (≈ 14.5 to 29 µM) | > 128 | 0.5 to 1 (≈ 0.905 to 1.81 µM)
NCCN1CCN(C(=O)N[C@H](C(=O)N[C@H]2Cc3cccc(C(=O)O)c3OB2O)c2c(F)cc(O)cc2F)C(=O)C1=O (single isomer, unassigned) [Example 110] | > 128 | 8 to 16 (≈ 13.9 to 27.8 µM) | 8 to 16 (≈ 13.9 to 27.8 µM) | > 128 | > 128 | 32 to 64 (≈ 55.6 to 111 µM) | > 128 | > 128 | > 128 | 32 to 64 (≈ 55.6 to 111 µM) | > 128 | 8 to 16 (≈ 13.9 to 27.8 µM)
NCCCN1CCN(C(=O)NC(C(=O)N[C@H]2Cc3ccc(F)c(C(=O)O)c3OB2O)c2c(F)cc(O)cc2F)C(=O)C1=O (stereo partly drawn) [Example 178, (3R)-3-(2-(4-(3-aminopropyl)-2,3-dioxopiperazine-1-carboxamido)-2-(2,6-difluoro-4-hydroxyphenyl)acetamido)-7-fluoro-2-hydroxy-3,4-dihydro-2H-benzo[e][1,2]oxaborinine-8-carboxylic acid] | > 128 | 2 to 4 (≈ 3.29 to 6.59 µM) | 8 to 16 (≈ 13.2 to 26.3 µM) | 8 to 16 (≈ 13.2 to 26.3 µM) | 32 to 64 (≈ 52.7 to 105 µM) | 2 to 4 (≈ 3.29 to 6.59 µM) | 32 to 64 (≈ 52.7 to 105 µM) | 32 to 64 (≈ 52.7 to 105 µM) | 8 to 16 (≈ 13.2 to 26.3 µM) | 8 to 16 (≈ 13.2 to 26.3 µM) | > 128 | 0.5 to 1 (≈ 0.823 to 1.65 µM)
CCN1CCN(C(=O)NC(C(=O)N[C@H]2Cc3cccc(C(=O)O)c3OB2O)c2cc(Cl)c(O)c(Cl)c2)C(=O)C1=O (stereo partly drawn) [Example 171, (3R)-3-(2-(3,5-dichloro-4-hydroxyphenyl)-2-(4-ethyl-2,3-dioxopiperazine-1-carboxamido)acetamido)-2-hydroxy-3,4-dihydro-2H-benzo[e][1,2]oxaborinine-8-carboxylic acid] | > 128 | < 0.25 | 2 to 4 (≈ 3.37 to 6.74 µM) | 32 to 64 (≈ 53.9 to 108 µM) | 32 to 64 (≈ 53.9 to 108 µM) | 2 to 4 (≈ 3.37 to 6.74 µM) | > 128 | > 128 | 32 to 64 (≈ 53.9 to 108 µM) | 2 to 4 (≈ 3.37 to 6.74 µM) | > 128 | < 0.25
NC1(CN2CCN(C(=O)N[C@H](C(=O)N[C@H]3Cc4cccc(C(=O)O)c4OB3O)c3c(F)cc(O)cc3F)C(=O)C2=O)CC1 (single isomer, unassigned) [Example 122] | > 128 | 2 to 4 (≈ 3.33 to 6.65 µM) | 8 to 16 (≈ 13.3 to 26.6 µM) | 32 to 64 (≈ 53.2 to 106 µM) | 32 to 64 (≈ 53.2 to 106 µM) | 8 to 16 (≈ 13.3 to 26.6 µM) | > 128 | 32 to 64 (≈ 53.2 to 106 µM) | 32 to 64 (≈ 53.2 to 106 µM) | 32 to 64 (≈ 53.2 to 106 µM) | > 128 | 2 to 4 (≈ 3.33 to 6.65 µM)
